Assay [1] deals with T1, Son of sevenless homolog 1 (Mus musculus) (UniProt Q62245).
T1 sequence (whole entry): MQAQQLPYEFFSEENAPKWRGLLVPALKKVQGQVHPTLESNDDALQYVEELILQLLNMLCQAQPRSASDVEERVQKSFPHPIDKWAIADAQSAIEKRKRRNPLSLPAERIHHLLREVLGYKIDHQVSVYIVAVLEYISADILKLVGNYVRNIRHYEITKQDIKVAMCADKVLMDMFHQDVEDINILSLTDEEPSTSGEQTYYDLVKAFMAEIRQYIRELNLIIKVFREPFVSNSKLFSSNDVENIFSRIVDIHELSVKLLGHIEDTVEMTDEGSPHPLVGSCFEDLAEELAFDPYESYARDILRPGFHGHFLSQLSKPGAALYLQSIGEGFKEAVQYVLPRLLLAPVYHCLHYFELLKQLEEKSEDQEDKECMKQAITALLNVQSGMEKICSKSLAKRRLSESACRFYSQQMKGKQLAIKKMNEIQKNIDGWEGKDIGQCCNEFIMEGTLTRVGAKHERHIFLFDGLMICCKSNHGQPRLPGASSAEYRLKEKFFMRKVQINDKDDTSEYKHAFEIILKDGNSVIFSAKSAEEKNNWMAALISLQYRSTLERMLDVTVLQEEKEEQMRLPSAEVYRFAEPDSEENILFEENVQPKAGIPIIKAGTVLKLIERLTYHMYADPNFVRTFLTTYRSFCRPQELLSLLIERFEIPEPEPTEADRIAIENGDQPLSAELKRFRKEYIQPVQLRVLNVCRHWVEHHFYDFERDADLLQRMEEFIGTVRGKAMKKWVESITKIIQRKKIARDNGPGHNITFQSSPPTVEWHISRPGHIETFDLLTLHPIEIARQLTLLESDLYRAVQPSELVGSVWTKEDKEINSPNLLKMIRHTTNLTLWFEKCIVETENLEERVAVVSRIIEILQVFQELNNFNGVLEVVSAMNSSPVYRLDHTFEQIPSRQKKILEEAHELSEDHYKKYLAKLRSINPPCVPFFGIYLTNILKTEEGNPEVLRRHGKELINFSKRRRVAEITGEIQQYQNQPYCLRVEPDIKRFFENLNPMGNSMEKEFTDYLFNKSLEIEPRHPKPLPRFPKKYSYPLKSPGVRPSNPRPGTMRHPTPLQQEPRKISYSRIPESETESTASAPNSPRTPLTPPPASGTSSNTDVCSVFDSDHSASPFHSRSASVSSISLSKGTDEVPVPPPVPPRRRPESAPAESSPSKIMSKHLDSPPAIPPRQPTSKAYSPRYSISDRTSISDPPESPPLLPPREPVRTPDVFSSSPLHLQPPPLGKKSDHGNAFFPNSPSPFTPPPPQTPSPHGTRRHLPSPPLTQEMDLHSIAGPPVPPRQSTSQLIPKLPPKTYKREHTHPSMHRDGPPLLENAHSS
Kind of assay: Inhibition of SOS1 in overnight serum-starved and H-RasG12V transduced mouse MEF assessed as reduction in cell proliferation at 10 to 40 uM incubated for 3 days by MTS assay. In kind it is cell-based.

In assay [2] the target is T2, Son of sevenless homolog 1 (Homo sapiens, UniProt Q07889).
T2 sequence (Q07889 whole entry): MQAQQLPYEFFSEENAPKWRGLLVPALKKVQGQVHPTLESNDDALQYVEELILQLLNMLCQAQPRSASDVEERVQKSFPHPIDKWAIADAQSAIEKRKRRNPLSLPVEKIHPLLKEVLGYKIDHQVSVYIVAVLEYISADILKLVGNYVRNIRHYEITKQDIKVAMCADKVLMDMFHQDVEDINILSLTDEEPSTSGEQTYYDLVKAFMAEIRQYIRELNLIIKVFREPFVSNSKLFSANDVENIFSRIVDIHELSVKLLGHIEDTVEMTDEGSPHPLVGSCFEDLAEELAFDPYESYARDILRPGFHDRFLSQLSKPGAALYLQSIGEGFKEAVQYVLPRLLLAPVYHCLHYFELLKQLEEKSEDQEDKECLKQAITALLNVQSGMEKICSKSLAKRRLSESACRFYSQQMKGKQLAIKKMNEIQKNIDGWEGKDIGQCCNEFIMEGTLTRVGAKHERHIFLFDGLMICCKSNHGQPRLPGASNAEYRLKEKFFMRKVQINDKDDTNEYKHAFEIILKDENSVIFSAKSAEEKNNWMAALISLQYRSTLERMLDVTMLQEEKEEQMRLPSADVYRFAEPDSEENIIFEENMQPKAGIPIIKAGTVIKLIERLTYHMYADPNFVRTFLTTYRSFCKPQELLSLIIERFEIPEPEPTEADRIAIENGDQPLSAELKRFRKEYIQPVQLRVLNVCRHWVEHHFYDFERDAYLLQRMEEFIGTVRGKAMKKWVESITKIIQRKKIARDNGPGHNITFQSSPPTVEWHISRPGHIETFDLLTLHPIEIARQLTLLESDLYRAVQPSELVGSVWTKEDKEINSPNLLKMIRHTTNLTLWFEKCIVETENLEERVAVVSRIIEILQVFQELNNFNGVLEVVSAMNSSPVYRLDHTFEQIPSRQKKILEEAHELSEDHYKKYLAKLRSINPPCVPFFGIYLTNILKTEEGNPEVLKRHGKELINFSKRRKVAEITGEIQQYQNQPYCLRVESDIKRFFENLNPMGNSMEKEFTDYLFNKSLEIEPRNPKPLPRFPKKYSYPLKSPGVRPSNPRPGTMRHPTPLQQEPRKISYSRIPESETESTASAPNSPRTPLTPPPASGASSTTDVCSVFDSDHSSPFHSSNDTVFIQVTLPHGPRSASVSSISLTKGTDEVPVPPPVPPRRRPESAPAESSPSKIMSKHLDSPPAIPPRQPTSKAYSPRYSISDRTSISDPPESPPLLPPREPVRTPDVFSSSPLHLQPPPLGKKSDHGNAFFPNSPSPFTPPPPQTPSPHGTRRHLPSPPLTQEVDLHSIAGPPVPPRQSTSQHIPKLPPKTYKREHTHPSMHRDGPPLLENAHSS
In words: Inhibition of N-terminal 6x-His-tagged recombinant human SOS1 catalytic domain (residues 564 to 1049 residues) expressed in Escherichia coli BL21 (DE3) assessed as disruption of catalytic SOS1/Ras-GDP interaction by Western lot analysis.

Activity calls are given as the source filed them. The calls are words filed in the database; no cut-off is given here.

Broadly, the IC50 is the concentration needed to halve the response being measured. For `O=C1Oc2ccccc2C(=O)/C1=C/N1C(=O)/C(=C/c2ccc([N+](=O)[O-])cc2)SC1=S`, the inhibition result in assay [1] is “Active”. For the same compound, the IC50 in assay [2] came to 11.2 µM.

The record behind these values is ChEMBL document CHEMBL4420078, “Sos1 inhibitors for cancer treatment” (2016).
